Molecules are shown by their SMILES.

In this test the target is T1, human GPR84 receptor (Homo sapiens, UniProt Q9NQS5).
T1 construct: host or cells: HEK293, transient transfection
Put plainly: Gαi biosensor BRET assay in HEK293 cells (antagonism of ZQ-16). Format: cell-based. The following applies: for inhibition at 10 µM: HEK293, single concentration 10 μM (designated F); for IC50: HEK293 cells, antagonism of 200 nmol/L ZQ-16; for inhibition at 2 µM: HEK293, single concentration 2 μM (designated A); for inhibition at 25 µM: HEK293, single concentration 25 μM (designated I). The method, boiled down:
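Antagonist mode: test compound 5 min at 37° C, followed by ZQ-16 agonist (200 nmol/L, 5 min, room temperature), in HEK293 cells transfected with GPR84 plus Rluc8-tagged Gαi2, GFP10-Gγ2 and Gβ1. Readout as GFP10/Rluc8 emission ratio after 5 μmol/L coelenterazine 400A, net of Rluc8-only and vehicle signal.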
In general terms: In BRET a luciferase serves as donor, and the signal depends on an acceptor being close.

T1 sequence (Q9NQS5 whole entry): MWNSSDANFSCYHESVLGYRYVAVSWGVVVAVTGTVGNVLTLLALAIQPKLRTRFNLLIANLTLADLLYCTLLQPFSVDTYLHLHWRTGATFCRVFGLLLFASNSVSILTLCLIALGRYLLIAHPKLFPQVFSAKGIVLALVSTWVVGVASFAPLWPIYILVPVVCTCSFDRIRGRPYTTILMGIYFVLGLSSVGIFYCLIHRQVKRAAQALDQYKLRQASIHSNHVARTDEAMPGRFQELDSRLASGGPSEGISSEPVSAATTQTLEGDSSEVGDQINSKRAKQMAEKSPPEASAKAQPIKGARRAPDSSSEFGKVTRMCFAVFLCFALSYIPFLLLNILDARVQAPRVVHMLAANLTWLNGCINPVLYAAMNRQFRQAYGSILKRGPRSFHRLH

For orientation: inhibition means how much of the control response was suppressed. Low readings indicate little suppression, high ones strong suppression. On to `Cc1cc(C2CCN(Cc3ccccn3)CC2)cnc1Cc1cn(CC2CCCCO2)nn1` (stereo not drawn) [Compound I-504], for which the inhibition at 10 µM was at most 25%.

In turn, `CN(c1cn(CC2OCC(C)(C)CO2)nn1)c1cc(C#N)ccc1Cl` [Compound I-803] gave an inhibition at 10 µM of over 75%.

As usually defined, the IC50 is the point on the concentration scale where inhibition reaches its midpoint. The low end stands for greater potency, the high end for weaker potency. For `Cc1cc(C#CCN(C)C2CC2)ccc1-c1cn(CC2OCC(C)(C)CO2)nn1` [Compound I-698], the inhibition at 10 µM is over 75% and the IC50 is 300 to 1000 nM.

With `CC(=O)NCC#Cc1ccc(-c2cn(C[C@H]3CCCCO3)nn2)c(C)c1` [Compound I-193], the inhibition at 10 µM fell in the range of 25 to 50%.

Molecule `CC(=O)c1cc(C#CC2CC2)ccc1-c1cn(CC2CCCCO2)nn1` (stereo not drawn) [Compound I-124] returned an inhibition at 10 µM of 25 to 50%.

Turning to `Cc1cc(N2CC(C)(C)C2)ccc1-c1cn(CC2CCCCO2)nn1` (stereo not drawn) [Compound I-864], the inhibition at 10 µM lay within 25 to 50% and the IC50 was 300 to 1000 nM.

Under “HEK293, single concentration 12.5 μM (designated G)”, `Cc1ccc(-c2ccc(-c3cn(C[C@H]4COCCO4)nn3)cc2)cn1` [Compound I-25] had an inhibition at 12.5 µM of at most 25%.

`Cc1cc(N2CCN(c3ccncc3)CC2)ccc1-c1cn(CC2CCCCO2)nn1` (stereo not drawn) [Compound I-563] registered an inhibition at 10 µM of at most 25%.

As for `Cc1cc(C#CC2CC2)ccc1-c1cn(CC2CC(C)(C)CCO2)nn1` (stereo not drawn) [Compound I-599], the inhibition at 10 µM was at most 25%.

In turn, `Cc1cc(N2CC(C)(C)C2)ccc1-c1cn(C[C@H]2CCCCO2)nn1` [Compound I-253] returned an IC50 of at most 300 nM. The molecule also yielded an inhibition at 3.3 µM (HEK293, single concentration 3.3 μM (designated C)) of over 75%.

`Cc1cc(C#CC2CC2)ccc1-c1cn(CC2CCCCN2)nn1` (stereo not drawn) [Compound I-126] displayed an inhibition at 10 µM of at most 25%.

In turn, `Cc1cc(C#CC2CC2)ccc1-c1cn(Cc2ncco2)nn1` [Compound I-143] gave an inhibition at 10 µM of at most 25%.

As to `CC(c1cncc(C#CC2CC2)c1)c1cn(CC2CCCCO2)nn1` (stereo not drawn) [Compound I-426], the inhibition at 10 µM lay within 25 to 50%.

Take `CC1(C)COC(Cn2cc(-c3ccc(N4CCN(Cc5ccccn5)CC4)cc3CC(F)(F)F)nn2)OC1` [Compound I-747]: the inhibition at 2 µM was over 75% and the IC50 was at most 300 nM.

On to `Cc1c(C#CC2CC2)cccc1-c1nnn(CC2CCCCO2)n1` (stereo not drawn) [Compound I-8], for which the inhibition at 25 µM is at most 25%.

`COC(c1cn(CC2OCC(C)(C)CO2)nn1)c1cc(C#CC2CC2)c(F)cc1C` (stereo not drawn) [Compound I-724] gave an inhibition at 2 µM of over 75% and an IC50 of at most 300 nM.

The molecule `CCN(CC)c1cc(N2CC(C)(CO)C2)ccc1-c1cn(CC2OCC3(CC3)CO2)nn1` [Compound I-800] returned an inhibition at 10 µM of 50 to 75% and an IC50 of 300 to 1000 nM.

In turn, `CN(C)c1cc(C#CC(C)(C)O)ccc1-c1cn(CC2OCC(C)(C)CO2)nn1` [Compound I-719] gave an inhibition at 10 µM of over 75% and an IC50 of 1000 to 3000 nM.

Regarding `Cn1cc(-c2ccc(C#CC3CC3)cc2)nc1CC1CCCCO1` (stereo not drawn) [Compound I-337], the inhibition at 5 µM (HEK293, single concentration 5 μM (designated D)) is at most 25%.

On to `Cc1cc(OCC(F)(F)F)cnc1-c1cn(CC2OCC(C)(C)CO2)nn1` [Compound I-638], for which the inhibition at 10 µM is at most 25%.

Take `Cc1cc(C#CC2CC2)ccc1-c1cn(CC23CC(CO2)C3)nn1` [Compound I-525]: the inhibition at 10 µM is at most 25%.

`Cc1cc(C#CC2CC(F)(F)C2)cnc1-c1cn(CC2CCCCO2)nn1` (stereo not drawn) [Compound I-648] registered an inhibition at 10 µM of over 75%.

For `CN(C)c1cc(N2CC(C)(CO)C2)c(F)cc1-c1cn(CC2OCC3(CC3)CO2)nn1` [Compound I-784], the IC50 was at most 300 nM.

As for `COC(=O)N1CCOC(Cn2cc(-c3ccc(C#CC4CC4)cc3C)nn2)C1` (stereo not drawn) [Compound I-105], the inhibition at 10 µM is at most 25%.

Molecule `Cc1ccc(C#CC2CC2)cc1-c1cn(Cc2ncccn2)nn1` [Compound I-293] showed an inhibition at 2 µM of over 75%.

In the case of `Cc1cc(N2CC3(CCCN3)C2)ccc1-c1cn(CC2CCCCO2)nn1` (stereo not drawn) [Compound I-147], the inhibition at 10 µM was at most 25%.

Turning to `Cc1cc(N2CCC(N(C)C)CC2)ccc1-c1cn(CC2CCCCO2)nn1` (stereo not drawn) [Compound I-129], the inhibition at 10 µM was at most 25%.

With `Cc1cc(N2CC(CO)C2)ccc1-c1cn(CC2CCCCO2)nn1` (stereo not drawn) [Compound I-471], the inhibition at 10 µM is over 75%.

Consider `Cc1cc(N2CC(C)(CN3CC(C)(C)C3)C2)ccc1-c1cn(CC2CCCCO2)nn1` (stereo not drawn) [Compound I-660], for which the inhibition at 10 µM was at most 25%.

In turn, `Cc1cc(C#CC2CC2)ccc1-n1nc(OC[C@H]2COCCO2)oc1=O` [Compound I-13] displayed an inhibition at 10 µM of 25 to 50%.

Take `Cc1cc(OCc2ccccn2)ccc1-c1cn(CC2CCCCO2)nn1` (stereo not drawn) [Compound I-54]: the inhibition at 25 µM lay in the range of 50 to 75% and the IC50 fell in the range of 300 to 1000 nM.

`CCc1cc(N2CC(C)(C)C2)ccc1-c1cn(CC2Oc3ccccc3O2)nn1` [Compound I-647] returned an inhibition at 2 µM of over 75% and an IC50 of 300 to 1000 nM.

Regarding `CCc1cc(C#CC2CC2)ccc1-c1cn(CC2CCCCO2)nn1` (stereo not drawn) [Compound I-865], the inhibition at 10 µM is at most 25% and the IC50 lay in the range of 300 to 1000 nM.

As to `Cc1cc(C#CC2CC2)cnc1-c1cn(CC2OCC(F)(F)CO2)nn1` [Compound I-713], the inhibition at 10 µM fell in the range of 50 to 75% and the IC50 was in the range of 300 to 1000 nM.

Regarding `CC(=O)N(C)C(C)(C)COc1ccc(-c2cn(CC3CCCCO3)nn2)c(C)c1` (stereo not drawn) [Compound I-290], the inhibition at 10 µM fell in the range of 25 to 50%.

For `CC1(C)COC(Cn2cc(-c3ncc(C#CC4CC4)cc3C(F)F)nn2)OC1` [Compound I-736], the inhibition at 10 µM was at most 25%.

The molecule `CCOc1cc(C#CCOC)cnc1-c1cn(CC2OCC(C)(C)CO2)nn1` [Compound I-834] had an inhibition at 10 µM of at most 25% and a 50% inhibitory concentration (IC50) of at most 300 nM.

As for `Cc1nn(CC2CCCCO2)cc1-c1cccc(C#CC2CC2)c1` (stereo not drawn) [Compound I-323], the inhibition at 25 µM is at most 25%.

`Cc1cc(N2CC3(COC3)C2)ccc1-c1cn(CC2CCCCO2)nn1` (stereo not drawn) [Compound I-113] registered an inhibition at 10 µM of 25 to 50%.

As for `CN(C)c1cc(C#CC2CC2)ccc1-c1cn(CC2CCOCC2)nn1` [Compound I-200], the inhibition at 10 µM was in the range of 25 to 50%.

`Cc1ccc(C#CC2CC2)cc1Sc1cn(CC2OCC(C)(C)CO2)nn1` [Compound I-781, 4-((5-(cyclopropylethynyl)-2-methylphenyl)thio)-1-((5,5-dimethyl-1,3-dioxan-2-yl)methyl)-1H-1,2,3-triazole] registered an inhibition at 10 µM of over 75%.

Consider `CC(=O)N1CCCCC1Cn1cc(-c2ccc(C#CC3CC3)cc2C)nn1` (stereo not drawn) [Compound I-139], for which the inhibition at 10 µM is at most 25%.

`Cc1cc(C#CC2CC2)ccc1-c1cn(CCOCC2COCCO2)nn1` (stereo not drawn) [Compound I-92] came in with an inhibition at 25 µM of 25 to 50%.

The molecule `Cc1ccc(C#CC2CC2)cc1Cc1cn(CC2CCc3ccccc3O2)nn1` (stereo not drawn) [Compound I-551] showed an inhibition at 10 µM of 25 to 50%.

`Cc1cc(N2CCN(Cc3ccccn3)CC2)ccc1-c1cn(CC2OCC3(CC3)CO2)cn1` [Compound I-795]: the inhibition at 10 µM fell in the range of 25 to 50% and the IC50 is at most 300 nM.

On to `CC1(C)COC(Cn2cc(-c3ncc(C#CC4CC4)cc3Cl)nn2)OC1` [Compound I-708], for which the inhibition at 10 µM was over 75% and the IC50 was at most 300 nM.

As for `CN(C)c1cc(C#CC2CC2)cnc1-c1cn(CC2CCCCO2)nn1` (stereo not drawn) [Compound I-518], the inhibition at 10 µM was over 75% and the IC50 was 1000 to 3000 nM.

As to `COc1ccc(Cl)c(N(C)c2cn(CC3OCC(C)(C)CO3)nn2)c1` [Compound I-813], the inhibition at 10 µM is over 75%.

In turn, `CC1(CO)CN(c2cnc(-c3cn(CC4OCC5(CCC5)O4)nn3)c(Cl)c2)C1` (stereo not drawn) [Compound I-807] returned an inhibition at 10 µM of over 75%.

Regarding `Cc1cc(C#CC2CCC2)ccc1-c1cn(CC2CCCCO2)nn1` (stereo not drawn) [Compound I-540], the inhibition at 10 µM was over 75%.

The molecule `Cc1cc(C#CC2CC2)cnc1-c1cn(CC2OCCCO2)nn1` [Compound I-414] came in with an inhibition at 10 µM of 50 to 75%.

For `COCC#Cc1cnc(-c2cn(CC3OCC(C)(C)CO3)nn2)c(OC2CC2)c1` [Compound I-757], the inhibition at 2 µM was over 75% and the IC50 is at most 300 nM.

For `Cc1cc(N2CC(C)(Nc3ccccc3)C2)ccc1-c1cn(CC2CCCCO2)nn1` (stereo not drawn) [Compound I-537, 3-methyl-1-(3-methyl-4-(1-((tetrahydro-2H-pyran-2-yl)methyl)-1H-1,2,3-triazol-4-yl)phenyl)-N-phenylazetidin-3-amine], the inhibition at 10 µM was over 75% and the IC50 was in the range of 300 to 1000 nM.

Molecule `COc1cc(-c2cn(C[C@H]3CCCCO3)nn2)c(C)cc1N1CC(C)(C)C1` [Compound I-422] showed an inhibition at 10 µM of at most 25%.

`N#Cc1cc(C#CC2CC2)ccc1-c1cn(CC2CCCCO2)nn1` (stereo not drawn) [Compound I-133] had an inhibition at 10 µM of 50 to 75%.

Molecule `COCC#Cc1cnc(-c2cn(CC3OCC(C)(C)CO3)cn2)c(OC2CC2)c1` [Compound I-848] gave an inhibition at 10 µM of at most 25%.

Regarding `CC1(C)COC(Cn2cc(-c3ncc(C#CCOC4CC4)cc3OC3CC3)nn2)OC1` [Compound I-758], the inhibition at 2 µM is over 75% and the IC50 was at most 300 nM.

Consider `Cc1cc(N2CCN(Cc3ccccn3)CC2)cnc1-c1cn(CC2OCC(C)(C)CO2)nn1` [Compound I-597], for which the inhibition at 10 µM lay in the range of 50 to 75%.

Molecule `Cc1cc(C#CCNC(=O)OC(C)C)cnc1-c1cn(CC2CCCCO2)nn1` (stereo not drawn) [Compound I-570, isopropyl (3-(5-methyl-6-(1-((tetrahydro-2H-pyran-2-yl)methyl)-1H-1,2,3-triazol-4-yl)pyridin-3-yl)prop-2-yn-1-yl)carbamate] displayed an inhibition at 10 µM of over 75% and an IC50 of over 3000 nM.

Regarding `CCc1ccc(C#CC2CC2)cc1-c1cn(CC2CCCCO2)nn1` (stereo not drawn) [Compound I-160], the inhibition at 10 µM is over 75% and the IC50 was over 3000 nM.

`Cc1cc(N2CCN(Cc3nccn3C)CC2)ccc1-c1cn(CC2CCCCO2)nn1` (stereo not drawn) [Compound I-580]: the inhibition at 10 µM was 25 to 50%.

The record behind these values is US12617777B2, “GPR84 antagonists and uses thereof” (Liminal BioSciences Limited, priority 2021, dated 2026).
